Reference: patent US11021475B2, “Amide-substituted heterocyclic compounds useful as modulators of IL-12, IL-23 and/or IFN alpha responses” (Bristol-Myers Squibb Company, priority 2012, dated 2021)
Where two headings read alike, the source gives them in different places.

What was measured:
[1] = tested on: IL-23 stimulated Kit225 T cells (STAT-dependent luciferase reporter); experiment: Kit225 T cell assay, IL-23-stimulated STAT-dependent luciferase reporter; format: cell-based, human
Protocol: (§1) Kit225 T cells with a stably-integrated STAT-dependent luciferase reporter were plated in RPMI (Gibco) containing 10% heat-inactivated FBS (Gibco) and 100 U/mL PenStrep (Gibco). The cells were then stimulated with either 20 ng/mL human recombinant IL-23 or 200 U/mL human recombinant IFNα (PBL InterferonSource) for 5-6 hours. Luciferase expression was measured using the STEADY-GLO® Luciferase Assay System (Promega) according to the manufacturer's instructions. Inhibition data were calculated by comparison to no inhibitor control wells for 0% inhibition and non-stimulated control wells for 100% inhibition.

[2] = tested on: IFNα stimulated Kit225 T cells (STAT-dependent luciferase reporter); experiment: Kit225 T cell assay, IFNα-stimulated STAT-dependent luciferase reporter; format: cell-based, human
Protocol: as §1

[3] = 20 ng/mL human recombinant IL-23, 5-6 hours, read-out: IL-23 Kit225 Reporter (IC50)
[4] = 200 U/mL human recombinant IFNα, 5-6 hours, read-out: IFNα Kit225 Reporter (IC50)
[5] = KIT225, 20 ng/mL human recombinant IL-23, 5-6 hours, read-out: IL-23 Kit225 Reporter (IC50)
[6] = KIT225, 200 U/mL human recombinant IFNα, 5-6 hours, read-out: IFNα Kit225 Reporter (IC50)

Row | Structure (SMILES) | IC50 [1, 3] | IC50 [2, 4] | also measured
1 | CNC(=O)c1nnc(Nc2ccnc(C)n2)cc1Nc1ccccc1S(C)(=O)=O [Example 39] | 340 nM | 130 nM | 
2 | CCc1cc(Nc2cc(Nc3cccc(-c4ncn(C)n4)c3OC)c(C(=O)NC)nn2)ncn1 [Example 68] | 6.56 nM | 3.45 nM | 
3 | CNC(=O)c1nnc(Nc2ccc(C(=O)OC)cn2)cc1Nc1ccccc1S(C)(=O)=O [Example 32] | 70 nM | 50 nM | 
4 | CNC(=O)c1nnc(Nc2cc(C)n(C)n2)cc1Nc1cccc(-c2nccs2)c1OC [Example 107] | 90 nM | 140 nM | 
5 | CNC(=O)c1nnc(Nc2ccccn2)cc1Nc1cccc(C(=O)NC2CC2)c1OC [Example 165] | 340 nM | 230 nM | 
6 | CNC(=O)c1nnc(NC(=O)C2CC2)cc1Nc1cccc(-n2cccn2)c1OC [Example 64] | 250 nM | 60 nM | 
7 | CNC(=O)c1nnc(Nc2ccccn2)cc1Nc1cccc(-c2noc(C)n2)c1OC [Example 206] |  |  | IC50 [1, 5]: 4.38 nM; IC50 [2, 6]: 0.712 nM
8 | CNC(=O)c1nnc(Nc2cc(CO)ccn2)cc1Nc1cccc(-c2ncn(C)n2)c1OC [Example 110] | 80 nM | 20 nM | 
9 | CNC(=O)c1nnc(Nc2ccc(CO)cn2)cc1Nc1ccccc1S(C)(=O)=O [Example 49] | 560 nM | 220 nM | 
10 | [2H]C([2H])([2H])NC(=O)c1nnc(NC(=O)C2CC2)cc1Nc1cccc(-c2cn[nH]c2)c1OC [Example 185] |  |  | IC50 [1, 5]: 280 nM; IC50 [2, 6]: 120 nM
11 | CNC(=O)c1nnc(Nc2cccc(C)n2)cc1Nc1ccccc1S(C)(=O)=O [Example 30] | 20 nM | 10 nM | 
12 | CNC(=O)c1nnc(Nc2cc(C)nc(C)n2)cc1Nc1cccc(-c2cnn(C)c2)c1OC [Example 57] | 6.01 nM | 6.48 nM | 
13 | [2H]C([2H])([2H])NC(=O)c1nnc(NC(=O)C2CC2)cc1Nc1cccc(-c2cc[nH]n2)c1OC [Example 195] |  |  | IC50 [1, 5]: 10 nM; IC50 [2, 6]: 20 nM
14 | CNC(=O)c1nnc(Nc2cc(C)c(C)cn2)cc1Nc1ccccc1S(C)(=O)=O [Example 20] | 20 nM | 20 nM | 
15 | [2H]C([2H])([2H])NC(=O)c1nnc(NC(=O)C2CC2)cc1Nc1cccc(-c2ncn(CC)n2)c1OC [Example 174] |  |  | IC50 ([1]; Homo sapiens, KIT225, read-out: IL-23 Kit225 Reporter (IC50, nM)): 20 nM; IC50 ([2]; Homo sapiens, KIT225, read-out: IFNα Kit225 Reporter (IC50, nM)): 6.97 nM
16 | CNC(=O)c1nnc(NC(=O)C2CC2)cc1Nc1ccccc1S(C)(=O)=O [Example 17] | 570 nM | 360 nM | 
17 | CNC(=O)c1nnc(NC(=O)C2CC2)cc1Nc1cccc(-c2cn(C)cn2)c1OC [Example 159] | 110 nM | 80 nM | 

Row | Structure (SMILES) | IC50 [1, 3] | IC50 [2, 4] | also measured
18 | CNC(=O)c1nnc(Nc2cc(C)nc(COC)n2)cc1Nc1ccccc1S(C)(=O)=O [Example 41] | 160 nM | 190 nM | 
19 | CNC(=O)c1nnc(Nc2cc(C)nc(C)n2)cc1Nc1ccccc1S(C)(=O)=O [Example 7] | 70 nM | 50 nM | 
20 | CNC(=O)c1nnc(NC(=O)C2CC2)cc1Nc1ccccc1S(C)(=O)=O [Example 12] | 230 nM | 100 nM | 
21 | CNC(=O)c1nnc(Nc2ccc(C)nn2)cc1Nc1cccc(-c2ncccn2)c1OC [Example 122] | 30 nM | 3.2 nM | 
22 | CNC(=O)c1nnc(Nc2ccccn2)cc1Nc1cccc(-c2nnnn2C)c1OC [Example 145] | 10 nM | 8.44 nM | 
23 | CNC(=O)c1nnc(Nc2ccc(OC)cn2)cc1Nc1ccccc1S(C)(=O)=O [Example 22] | 160 nM | 100 nM | 
24 | CNC(=O)c1nnc(Nc2ccc(F)cn2)cc1Nc1ccccc1S(C)(=O)=O [Example 3] | 100 nM | 60 nM | 
25 | CNC(=O)c1nnc(Nc2cc(C)c(C)nn2)cc1Nc1ccccc1S(C)(=O)=O [Example 21] | 80 nM | 60 nM | 
26 | [2H]C([2H])([2H])NC(=O)c1nnc(NC(=O)C2CC2)cc1Nc1cccc(-c2nc(C)nn2C)c1OC [Example 182] |  |  | IC50 [1, 5]: 190 nM; IC50 [2, 6]: 80 nM
27 | CNC(=O)c1nnc(Nc2cc(C)n(C)n2)cc1Nc1cccc(-c2ccn(C)n2)c1OC [Example 93] | 50 nM | 10 nM | 
28 | COc1c(Nc2cc(NC(=O)C3CC3)nnc2C(N)=O)cccc1-c1ncn(C)n1 [Example 201] | 20 nM | 4.13 nM | 
29 | [2H]C([2H])([2H])NC(=O)c1nnc(NC(=O)C2CC2)cc1Nc1cccc(C#N)c1OC [Example 202, 4-((3-cyano-2-methoxyphenyl)amino)-6-(cyclopropanecarboxamido)-N-trideuteromethylpyridazine-3-carboxamide] |  |  | IC50 [1, 5]: 290 nM; IC50 [2, 6]: 330 nM
30 | CNC(=O)c1nnc(Nc2cc(C)n(C)n2)cc1Nc1cccc(-c2ncn(C)n2)c1OC [Example 60] | 10 nM | 3.38 nM | 
31 | CNC(=O)c1nnc(Nc2cc(CO)ccn2)cc1Nc1ccccc1S(C)(=O)=O [Example 34] | 190 nM | 170 nM | 
32 | CNC(=O)c1nnc(Nc2cc(C)c(F)cn2)cc1Nc1ccccc1S(C)(=O)=O [Example 15] | 40 nM | 50 nM | 
33 | CNC(=O)c1nnc(Nc2ccc(N3CCOCC3)cn2)cc1Nc1ccccc1S(C)(=O)=O [Example 29] | 140 nM | 80 nM | 

The next lines start with results.

Row | IC50 [1, 3] | IC50 [2, 4] | Structure (SMILES) | also measured
34 | 660 nM | 400 nM | CNC(=O)c1nnc(Nc2cc(C(C)=O)ccn2)cc1Nc1ccccc1S(C)(=O)=O [Example 33] | 
35 | 80 nM | 30 nM | CNC(=O)c1nnc(Nc2ccc(F)cn2)cc1Nc1cccc(-c2cccnn2)c1OC [Example 79] | 
36 | 20 nM | 10 nM | CNC(=O)c1nnc(Nc2cc(C)c(F)cn2)cc1Nc1cccc(-c2cscn2)c1OC [Example 129] | 
37 | 20 nM | 2.18 nM | CNC(=O)c1nnc(Nc2ccc(F)cn2)cc1Nc1cccc(-c2ccncn2)c1OC [Example 89] | 
38 | 130 nM | 30 nM | CNC(=O)c1nnc(Nc2cc(C)n(C)n2)cc1Nc1cccc(-c2nnc(C)o2)c1OC [Example 152] | 
39 | 40 nM | 20 nM | CNC(=O)c1nnc(NC(=O)C2CC2)cc1Nc1cccc(-c2ccn(C)n2)c1OC [Example 54] | 
40 | 20 nM | 50 nM | CNC(=O)c1nnc(Nc2cc3ccccc3cn2)cc1Nc1ccccc1S(C)(=O)=O [Example 13] | 
41 | 190 nM | 110 nM | CNC(=O)c1nnc(Nc2ccc(F)cn2)cc1Nc1ccccc1S(C)(=O)=O [Example 6] | 
42 | 60 nM | 20 nM | CNC(=O)c1nnc(Nc2cc(N3CCN(CCO)CC3)nc(C)n2)cc1Nc1cccc(-c2ncn(C)n2)c1OC [Example 99] | 
43 | 6.08 nM | 3.17 nM | CCc1ccnc(Nc2cc(Nc3cccc(-c4ncn(C)n4)c3OC)c(C(=O)NC)nn2)c1 [Example 128] | 
44 | 230 nM | 390 nM | CNC(=O)c1nnc(Nc2ccccn2)cc1Nc1cccc(C(=O)NCCCO)c1OC [Example 170] | 
45 | 210 nM | 210 nM | CNC(=O)c1nnc(Nc2cc(C)n(C)n2)cc1Nc1cccc(-c2cnc(C)s2)c1OC [Example 161] | 
46 | 60 nM | 50 nM | CNC(=O)c1nnc(Nc2cc(C)c(C#N)cn2)cc1Nc1ccccc1S(C)(=O)=O [Example 26] | 
47 | 180 nM | 140 nM | CNC(=O)c1nnc(NC(=O)C2CC2)cc1Nc1cccc(-c2nccs2)c1OC [Example 105] | 
48 | 30 nM | 4.41 nM | CNC(=O)c1nnc(Nc2cnc(C)cn2)cc1Nc1cccc(-c2ncccn2)c1OC [Example 113] | 
49 | 20 nM | 3.62 nM | CNC(=O)c1nnc(Nc2ccccn2)cc1Nc1cccc(-c2ncccn2)c1OC [Example 91] | 
50 | 20 nM | 9.97 nM | CNC(=O)c1nnc(Nc2cc(OC)ncn2)cc1Nc1cccc(-c2ncn(C)n2)c1OC [Example 88] | 
51 | 20 nM | 20 nM | CNC(=O)c1nnc(Nc2ccccn2)cc1Nc1cccc(-c2cscn2)c1OC [Example 132] | 
52 | 30 nM | 10 nM | CNC(=O)c1nnc(Nc2ccn(C)n2)cc1Nc1cccc(-c2ncccn2)c1OC [Example 111] | 
53 | 60 nM | 10 nM | CNC(=O)c1nnc(Nc2cc(C(C)(C)O)ccn2)cc1Nc1cccc(-c2ncn(C)n2)c1OC [Example 120] | 
54 | 20 nM | 10 nM | CNC(=O)c1nnc(Nc2cc(C)n(C)n2)cc1Nc1cccc(-c2n[nH]c(C)n2)c1OC [Example 148] | 
55 | 420 nM | 310 nM | CNC(=O)c1nnc(Nc2cc(OC(C)C)ncn2)cc1Nc1ccccc1S(C)(=O)=O [Example 45] | 
56 | 20 nM | 20 nM | CNC(=O)c1nnc(NC(=O)C2CC2)cc1Nc1cccc(-c2cn(C(C)C)nn2)c1OC [Example 190] | 
57 | 6.41 nM | 7.2 nM | CNC(=O)c1nnc(Nc2cc(C)nc(C)n2)cc1Nc1cccc(-c2nc(C)nn2C)c1OC [Example 184] | 
58 | 80 nM | 80 nM | CNC(=O)c1nnc(Nc2cc(C)c(F)cn2)cc1Nc1cccc(-c2nccs2)c1OC [Example 106] | 
59 | 20 nM | 6.04 nM | CNC(=O)c1nnc(NC(=O)C2CC2)cc1Nc1cccc(-c2cnn(C)n2)c1OC [Example 136] | 
60 | 100 nM | 20 nM | CNC(=O)c1nnc(NC(=O)C2CC2)cc1Nc1cccc(-c2nc(C)cs2)c1OC [Example 95] | 
61 | 40 nM | 30 nM | CNC(=O)c1nnc(NC(=O)C2CC2)cc1Nc1cccc(-c2cscn2)c1OC [Example 126] | 
